The numbers were not newly measured in US11311608B2, “Methods for treating breast and other cancers by targeting argininosuccinate synthetase 1-deficiency” (CITY OF HOPE, priority 2013, dated 2022), which cites them from elsewhere.

For this series the following is noted: versus arginase.

For the substance Arginine deiminase, the “effectiveness at depleting arginine from the environment relative to arginase” value was 300 fold.
